Earlier results on one compound are cited in patent US20230158047A1, “METHODS AND COMPOSITIONS FOR TREATING PROSTATE CANCER” (Tavanta Therapeutics Hungary Incorporated, priority 2020, published 2023).

The test system of the series is PSA levels. The note with it: phase 3, patients who failed prior chemotherapy with taxanes.

Take `CC(=O)O[C@H]1CC[C@@]2(C)C(=CC[C@@H]3[C@@H]2CC[C@]2(C)C(c4cccnc4)=CC[C@@H]32)C1` [abiraterone acetate, 3β-acetoxy-17-(3-pyridyl)-androsta-5,16-diene]: the “patients with at least a 50% decline from baseline in PSA levels” value is 38%.
